Assay results from US20250025443A1, “COMPOUNDS AND METHODS FOR TREATING CORONA VIRUSES” (CLEAR CREEK BIO, INC., priority 2021, published 2025).

Target: SARS-CoV-2 Papain-Like Protease (PLpro) (Severe acute respiratory syndrome coronavirus 2 (2019-nCoV) (SARS-CoV-2), UniProt P0DTD1)
Test: biochemical
Details: PLpro 6.25 nM, substrate 25 μM, 60 min at 25° C.; for more potent compounds PLpro 1 nM, 120 min; read-out: PLpro IC50

Row | Compound | IC50
1 | Cc1ccc(NC2CNC2)cc1C(=O)NC(C)c1cccc2c1CCCC2 (centres unmarked) [Compound 172, 5-(Azetidin-3-ylamino)-2-methyl-N-(1-(5,6,7,8-tetrahydronaphthalen-1-yl)ethyl)benzamide] | > 5000 nM
2 | Cc1ccc(O)cc1C(=O)N[C@H](C)c1cccc2ccccc12 [Compound 101, (R)-5-Hydroxy-2-methyl-N-(1-(naphthalen-1-yl)ethyl)benzamide] | 1000 to 5000 nM

Same assay, conditions: PLpro enzymatic fluorescence assay; class symbols; read-out: PLpro IC50

Row | Compound | IC50
3 | Cc1ccc(-c2cc(C3(NC(=O)c4cc(OC[C@@H]5CCN5)ccc4C)CC3)c3cccnc3c2)o1 [Compound 646, (S)-5-(Azetidin-2-ylmethoxy)-2-methyl-N-(1-(7-(5-methylfuran-2-yl)quinolin-5-yl)cyclopropyl)benzamide] | < 100 nM
4 | Cc1cc(-c2cc(C3(NC(=O)c4cc(OC[C@@H]5CCN5C)ccc4C)CC3)c3cccnc3c2)c(C)o1 [Compound 671, (S)—N-(1-(7-(2,5-Dimethylfuran-3-yl)quinolin-5-yl)cyclopropyl)-2-methyl-5-((1-methylazetidin-2-yl)methoxy)benzamide] | < 100 nM
5 | Cc1nc(Cl)c(-c2cc(C3(NC(=O)c4cc(OC[C@@H]5CCN5C)ccc4C)CC3)c3cccnc3c2)s1 [Compound 812, (S)-N-(1-(7-(4-Chloro-2-methylthiazol-5-yl)quinolin-5-yl)cyclopropyl)-2-methyl-5-((1-methylazetidin-2-yl)methoxy)benzamide] | < 100 nM
6 | Cc1ccc(N2C[C@@H](C)N[C@@H](C)C2)cc1C(=O)NC1(c2cccc3ccccc23)CC1 [Compound 506, 5-((3S,5R)-3,5-Dimethylpiperazin-1-yl)-2-methyl-N-(1-(naphthalen-1-yl)cyclopropyl)benzamide] | < 100 nM
7 | Cc1ccc(OCC(C)N)cc1C(=O)NC1(c2cccc3ncccc23)CC1 (centres unmarked) [Compound 498, 5-(2-Aminopropoxy)-2-methyl-N-(1-(quinolin-5-yl)cyclopropyl)benzamide] | < 100 nM
8 | Cc1ccc(OC[C@@H]2CCN2C)cc1C(=O)NC1(c2cc(-c3ccc(=O)[nH]c3)cc3ncccc23)CC1 [Compound 672, (S)-2-Methyl-5-((1-methylazetidin-2-yl)methoxy)-N-(1-(7-(6-oxo-1,6-dihydropyridin-3-yl)quinolin-5-yl)cyclopropyl)benzamide] | < 100 nM
9 | COc1cc(C2(NC(=O)c3cc(OC[C@@H]4CCN4CCF)ccc3C)CC2)c2cccnc2c1 [Compound 567, (S)-5-((1-(2-Fluoroethyl)azetidin-2-yl)methoxy)-N-(1-(7-methoxyquinolin-5-yl)cyclopropyl)-2-methylbenzamide] | < 100 nM
10 | CC(=O)Nc1cc(C2(NC(=O)c3cc(OCC4CCN4C)ccc3C)CC2)c2ccccc2c1 (centres unmarked) [Compound 500, N-(1-(3-Acetamidonaphthalen-1-yl)cyclopropyl)-2-methyl-5-((1-methylazetidin-2-yl)methoxy)benzamide] | < 100 nM
11 | Cc1ccc(OC[C@@H]2CCN2C)cc1C(=O)NC1(c2cc(OCC(C)(C)C)cc3ncccc23)CC1 [Compound 787, (S)-2-Methyl-5-((1-methylazetidin-2-yl)methoxy)-N-(1-(7-(neopentyloxy)quinolin-5-yl)cyclopropyl)benzamide] | < 100 nM
12 | Cc1ccc(OC[C@@H]2CCN2C)cc1C(=O)NC1(c2cc(C3CCCC3)cc3ncccc23)CC1 [Compound 648, (S)-N-(1-(7-Cyclopentylquinolin-5-yl)cyclopropyl)-2-methyl-5-((1-methylazetidin-2-yl)methoxy)benzamide] | < 100 nM
13 | (S)—N-(1-(7-Methoxy-2-methylquinolin-5-yl)cyclopropyl)-2-methyl-5-((1-(methyl-d3)azetidin-2-yl)methoxy)benzamide [Compound 798] | < 100 nM
14 | CC#Cc1cc(C2(NC(=O)c3cc(OC[C@@H]4CCN4C)ccc3C)CC2)c2ccc(C)nc2c1 [Compound 824, (S)-2-Methyl-N-(1-(2-methyl-7-(prop-1-yn-1-yl)quinolin-5-yl)cyclopropyl)-5-((1-methylazetidin-2-yl)methoxy)benzamide] | < 100 nM

Same assay, conditions: SARS-CoV-2 PLpro enzymatic fluorescence assay; read-out: PLpro IC50

Row | Compound | IC50
15 | Cc1cc2c(cc1C(=O)NC1(c3cccc4ccccc34)CC1)NC(=O)C2 [Compound 249, 5-Methyl-N-(1-(naphthalen-1-yl)cyclopropyl)-2-oxoindoline-6-carboxamide] | 100 to 1000 nM
16 | CCSc1cc(C2(NC(=O)c3cc(OCCN(C)C)ccc3C)CC2)c2ccccc2c1 [Compound 408, 5-(2-(Dimethylamino)ethoxy)-N-(1-(3-(ethylthio)naphthalen-1-yl)cyclopropyl)-2-methylbenzamide] | < 100 nM
17 | Cc1ccc(NC2CNC2)cc1C(=O)N1Cc2ccc(-c3ccc(CN4CCCC4)s3)cc2C1 [Compound 111, (5-(Azetidin-3-ylamino)-2-methylphenyl)(5-(5-(pyrrolidin-1-ylmethyl)thiophen-2-yl)isoindolin-2-yl)methanone] | > 5000 nM
18 | Cc1ccc(OCCN(C)C)cc1C(=O)NC1(c2cc(O)cc3ccccc23)CC1 [Compound 345, 5-(2-(Dimethylamino)ethoxy)-N-(1-(3-hydroxynaphthalen-1-yl)cyclopropyl)-2-methylbenzamide] | < 100 nM
19 | Cc1ccc(OCCN(C)C)cc1C(=O)NC1(c2cccc(OCc3ccccc3)c2)CC1 [Compound 308, N-(1-(3-(Benzyloxy)phenyl)cyclopropyl)-5-(2-(dimethylamino)ethoxy)-2-methylbenzamide] | > 5000 nM
20 | COc1cc(C2(NC(=O)c3cc(OC[C@@H]4C[C@@H](F)CN4)ccc3C)CC2)c2ccccc2c1 [Compound 490, 5-(((2S,4R)-4-Fluoropyrrolidin-2-yl)methoxy)-N-(1-(3-methoxynaphthalen-1-yl)cyclopropyl)-2-methylbenzamide] | < 100 nM
21 | Cc1cc2cn[nH]c2cc1C(=O)NC1(c2cccc3ccccc23)CC1 [Compound 176, 5-Methyl-N-(1-(naphthalen-1-yl)cyclopropyl)-1H-indazole-6-carboxamide] | 100 to 1000 nM
22 | Cc1cc2cc(CN(C)C)oc2cc1C(=O)NC1(c2cccc3ccccc23)CC1 [Compound 198, 2-((Dimethylamino)methyl)-5-methyl-N-(1-(naphthalen-1-yl)cyclopropyl)benzofuran-6-carboxamide] | 100 to 1000 nM
23 | CNCCOc1ccc(C)c(C(=O)N[C@@H](c2cccc3ccccc23)C(F)(F)F)c1 [Compound 349, (S)-2-Methyl-5-(2-(methylamino)ethoxy)-N-(2,2,2-trifluoro-1-(naphthalen-1-yl)ethyl)benzamide] | 100 to 1000 nM
24 | Cc1ccc(OCCN(C)C)cc1C(=O)NC1(c2ccc(Oc3ccccc3)cc2)CC1 [Compound 279, 5-(2-(Dimethylamino)ethoxy)-2-methyl-N-(1-(4-phenoxyphenyl)cyclopropyl)benzamide] | 1000 to 5000 nM
25 | Cc1cc2nc(C3CNC3)[nH]c2cc1C(=O)N[C@H](C)c1cccc2ccccc12 [Compound 131, (R)-2-(Azetidin-3-yl)-5-methyl-N-(1-(naphthalen-1-yl)ethyl)-1H-benzo[d]imidazole-6-carboxamide] | 1000 to 5000 nM
26 | Cc1ccc(OC[C@@H]2CCN2C)cc1C(=O)NC1(c2cc(NS(C)(=O)=O)cc3ncccc23)CC1 [Compound 786, (S)-2-Methyl-5-((1-methylazetidin-2-yl)methoxy)-N-(1-(7-(methylsulfonamido)quinolin-5-yl)cyclopropyl)benzamide] | < 100 nM
27 | Cc1ccc(OCCN(C)C)cc1C(=O)NC1(c2cccc3ccc(O)cc23)CC1 [Compound 417, 5-(2-(Dimethylamino)ethoxy)-N-(1-(7-hydroxynaphthalen-1-yl)cyclopropyl)-2-methylbenzamide] | < 100 nM
28 | Cc1ccc(N2CCCNCC2)cc1C(=O)NC1(c2cccc3ccccc23)CC1 [Compound 411, 5-(1,4-Diazepan-1-yl)-2-methyl-N-(1-(naphthalen-1-yl)cyclopropyl)benzamide] | < 100 nM
29 | COc1ncccc1Nc1ccc(C)c(C(=O)N[C@H](C)c2cccc3ccccc23)c1 [Compound 115, (R)-5-((2-Methoxypyridin-3-yl)amino)-2-methyl-N-(1-(naphthalen-1-yl)ethyl)benzamide] | 1000 to 5000 nM
30 | Cc1ccc(OC[C@H]2C[C@@H](F)CN2)cc1C(=O)NC1(c2cccc3ccccc23)CC1 (single isomer, unassigned) [Compound 438] | < 100 nM
31 | C=C(C)c1cc(C2(NC(=O)c3cc(OCC4CCN4C)ccc3C)CC2)c2ccccc2c1 (centres unmarked) [Compound 508, 2-Methyl-5-((1-methylazetidin-2-yl)methoxy)-N-(1-(3-(prop-1-en-2-yl)naphthalen-1-yl)cyclopropyl)benzamide] | < 100 nM
32 | CC(c1cccc2ccccc12)N1CCc2ccc(N)cc2C1 (centres unmarked) [Compound 135, 2-(1-(Naphthalen-1-yl)ethyl)-1,2,3,4-tetrahydroisoquinolin-7-amine] | 1000 to 5000 nM
33 | Cc1ccc(OCCCN)cc1C(=O)NC1(c2cccc3ccccc23)CC1 [Compound 316, 5-(3-Aminopropoxy)-2-methyl-N-(1-(naphthalen-1-yl)cyclopropyl)benzamide] | 100 to 1000 nM
34 | CON(C)C(=O)c1cc2cc(C)c(C(=O)NC3(c4cccc5ccccc45)CC3)cc2[nH]1 [Compound 225] | 100 to 1000 nM
35 | Cc1ccc(OC[C@H](C)N)cc1C(=O)NC1(c2cc(Br)cc3ccccc23)CC1 [Compound 541, (S)-5-(2-Aminopropoxy)-N-(1-(3-bromonaphthalen-1-yl)cyclopropyl)-2-methylbenzamide] | < 100 nM
36 | CNCCOc1ccc(C)c(C(=O)NC2(c3cccc4ccccc34)CC2)c1 [Compound 233, 2-Methyl-5-(2-(methylamino)ethoxy)-N-(1-(naphthalen-1-yl)cyclopropyl)benzamide] | < 100 nM
37 | COc1ccc(C2(NC(=O)c3cc(OCCN(C)C)ccc3C)CC2)cc1 [Compound 271, 5-(2-(Dimethylamino)ethoxy)-N-(1-(4-methoxyphenyl)cyclopropyl)-2-methylbenzamide] | > 5000 nM
38 | Cc1ccc(OCCN(C)C)cc1C(=O)NC1(c2ccccc2F)CC1 [Compound 272, 5-(2-(Dimethylamino)ethoxy)-N-(1-(2-fluorophenyl)cyclopropyl)-2-methylbenzamide] | > 5000 nM
